Literature values in US20090170848A1, “THIAZOLONES FOR USE AS PI3 KINASE INHIBITORS” (SMITHKLINE BEECHAM CORPORATION, priority 2006, published 2009).
pIC50: −log10 of the molar value. Where two headings read alike, the source gives them in different places.

Tests used:
CK2 protein kinase = CK2 protein kinase (Homo sapiens, UniProt P68400)
Sequence of CK2 protein kinase (P68400 whole entry): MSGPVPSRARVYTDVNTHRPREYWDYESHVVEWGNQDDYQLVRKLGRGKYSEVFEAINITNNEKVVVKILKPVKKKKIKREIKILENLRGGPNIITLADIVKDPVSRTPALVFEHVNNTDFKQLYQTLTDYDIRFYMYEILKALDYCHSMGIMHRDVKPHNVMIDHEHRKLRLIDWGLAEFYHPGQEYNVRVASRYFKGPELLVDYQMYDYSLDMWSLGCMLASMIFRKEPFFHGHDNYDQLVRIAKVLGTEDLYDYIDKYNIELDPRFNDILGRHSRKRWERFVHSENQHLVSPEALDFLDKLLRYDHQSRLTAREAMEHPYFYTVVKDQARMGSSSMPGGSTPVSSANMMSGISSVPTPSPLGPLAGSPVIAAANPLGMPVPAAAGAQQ

| Structure (SMILES) | pIC50 (Class I PI3-kinases; each of the four members of Class I PI3-kinases, read-out: IC50 values against each of the various Class I PI3-kinases) | pIC50 (Class I PI3-kinases; read-out: IC50 values against each of these PI3-kinases) | pIC50 (CK2 protein kinase) |
| --- | --- | --- | --- |
| COC[C@H]1OC(=O)c2coc3c2[C@@]1(C)C1=C(C3=O)[C@@H]2CCC(=O)[C@@]2(C)C[C@H]1OC(C)=O [wortmannin] | 8.00 to 9.00 | – | – |
| O=c1cc(N2CCOCC2)oc2c(-c3ccccc3)cccc12 [LY294002] | – | 4.70 to 4.82 | 5.00 to 5.30 |
